Values quoted from earlier work, collected in patent publication US20090035370A1, “DOSAGE FORM AND METHOD OF USE” (DRUGTECH CORPORATION, priority 2007, published 2009).
Like-named read-outs stand apart in the source and are kept apart here.

How the values were obtained:
[1] = biological target: T1, D2 receptor (Homo sapiens, UniProt P14416); conditions: patients receiving 300-600 mg/day
[2] = biological target: T1, D2 receptor
[3] = biological target: T1, D2 receptor; conditions: PET
[4] = administered orally

T1 sequence (P14416 whole entry): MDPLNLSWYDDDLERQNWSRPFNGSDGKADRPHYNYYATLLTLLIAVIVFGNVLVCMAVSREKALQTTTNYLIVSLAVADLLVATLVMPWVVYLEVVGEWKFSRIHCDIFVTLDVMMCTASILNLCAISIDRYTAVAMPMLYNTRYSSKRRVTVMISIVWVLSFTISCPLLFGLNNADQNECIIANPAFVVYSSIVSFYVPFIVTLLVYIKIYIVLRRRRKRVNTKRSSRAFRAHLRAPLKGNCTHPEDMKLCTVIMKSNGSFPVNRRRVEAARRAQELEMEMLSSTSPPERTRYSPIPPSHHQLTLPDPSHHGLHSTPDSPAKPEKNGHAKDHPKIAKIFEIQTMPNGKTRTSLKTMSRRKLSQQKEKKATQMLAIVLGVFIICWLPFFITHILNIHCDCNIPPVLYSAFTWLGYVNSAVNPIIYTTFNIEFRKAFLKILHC

## OCCOCCN1CCN(C2=Nc3ccccc3Sc3ccccc32)CC1 [Quetiapine]
[1]; 12 hours after receiving a dose
  D2 occupancy: less than 20%
[1]; at 2 hours
  D2 occupancy: ~60%
[2]; 2-3 hours after a dose
  D2 occupancy: 58-64%
[2]; by the end of a 12-hour dosing interval
  D2 occupancy: 0-27%
Kapur et al. 2000
  antipsychotic efficacy: effective antipsychotic
Patients with a first episode of schizophrenia, single daily dose
  response to treatment: responded to treatment
[3]; 2 to 3 hours after a single dose
  D2 occupancy: 58-62%
[3]; 12 hours after the last dose
  D2 occupancy: 0-27%
[4]
  time to peak plasma level: ≤ 1.5 h
